Measurements published in patent publication US12643871B2, “Aryl formamide compound containing chiral sulfur oxide or salt thereof, preparation method, herbicidal composition and use thereof” (Qingdao Kingagroot Chemical Compound Co., Ltd., priority 2019, dated 2026).

Legend:
Assay in all cases: Weeding effect in post-emergence stage
Type in all cases: in vivo
Conditions in all cases: 250 g/ha; 2 leaf stage; 15 days after application; fresh weight control rate
Echinochloa crusgali = test system: Echinochloa crusgali
Summary of the method: (§1)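 Two-leaf-stage pot plants, spray-tower application at 500/250/125/60/30/15 g/ha with methyl oleate EC synergist; fresh weight control level (0–5) read at 15 days post-treatment, three replicates averaged.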

Abutilon theophrasti = test system: Abutilon theophrasti
Summary of the method: as §1

Digitaria sanguinalis = test system: Digitaria sanguinalis
Summary of the method: as §1

Amaranthus retroflexus = test system: Amaranthus retroflexus
Summary of the method: as §1

Setaria viridis = test system: Setaria viridis
Summary of the method: as §1

Compound | weeding effect in post-emergence stage, activity level (growth control rate), Echinochloa crusgali (Echinochloa crusgali) | weeding effect in post-emergence stage, activity level (growth control rate), Abutilon theophrasti (Abutilon theophrasti) | weeding effect in post-emergence stage, activity level (growth control rate), Digitaria sanguinalis (Digitaria sanguinalis) | weeding effect in post-emergence stage, activity level (growth control rate), Amaranthus retroflexus (Amaranthus retroflexus) | weeding effect in post-emergence stage, activity level (growth control rate), Setaria viridis (Setaria viridis)
COc1c(C(=O)Nc2nnc(C)o2)ccc(C(F)(F)F)c1[S@+]([O-])CCC(C)(C)C [Compound 309] | 5 (Level 5: growth control rate is above 85%) | 5 (Level 5: growth control rate is above 85%) | 5 (Level 5: growth control rate is above 85%) | 5 (Level 5: growth control rate is above 85%) | 5 (Level 5: growth control rate is above 85%)
C=CCC[S@@+]([O-])c1c(C(F)(F)F)ccc(C(=O)Nc2nnc(C)o2)c1OC [Compound 312] | 5 (Level 5: growth control rate is above 85%) | 5 (Level 5: growth control rate is above 85%) | 5 (Level 5: growth control rate is above 85%) | 5 (Level 5: growth control rate is above 85%) | 5 (Level 5: growth control rate is above 85%)
CC=CC[S+]([O-])c1c(C(F)(F)F)ccc(C(=O)Nc2nnc(C)o2)c1OC (centres unmarked) [Compound 313] | 5 (Level 5: growth control rate is above 85%) | 5 (Level 5: growth control rate is above 85%) | 5 (Level 5: growth control rate is above 85%) | 5 (Level 5: growth control rate is above 85%) | 5 (Level 5: growth control rate is above 85%)
C#CC[S@@+]([O-])c1c(C(F)(F)F)ccc(C(=O)Nc2nnc(C)o2)c1OC [Compound 314] | 5 (Level 5: growth control rate is above 85%) | 5 (Level 5: growth control rate is above 85%) | 5 (Level 5: growth control rate is above 85%) | 5 (Level 5: growth control rate is above 85%) | 5 (Level 5: growth control rate is above 85%)
C#CCC[S@@+]([O-])c1c(C(F)(F)F)ccc(C(=O)Nc2nnc(C)o2)c1OC [Compound 315] | 5 (Level 5: growth control rate is above 85%) | 5 (Level 5: growth control rate is above 85%) | 5 (Level 5: growth control rate is above 85%) | 5 (Level 5: growth control rate is above 85%) | 5 (Level 5: growth control rate is above 85%)
CC#CC[S@@+]([O-])c1c(C(F)(F)F)ccc(C(=O)Nc2nnc(C)o2)c1OC [Compound 316] | 5 (Level 5: growth control rate is above 85%) | 5 (Level 5: growth control rate is above 85%) | 5 (Level 5: growth control rate is above 85%) | 5 (Level 5: growth control rate is above 85%) | 5 (Level 5: growth control rate is above 85%)
COc1c(C(=O)Nc2nnc(C)o2)ccc(C(F)(F)F)c1[S@+]([O-])CCF [Compound 319] | 5 (Level 5: growth control rate is above 85%) | 5 (Level 5: growth control rate is above 85%) | 5 (Level 5: growth control rate is above 85%) | 5 (Level 5: growth control rate is above 85%) | 5 (Level 5: growth control rate is above 85%)
COc1c(C(=O)Nc2nnc(C)o2)ccc(C(F)(F)F)c1[S@+]([O-])CCCF [Compound 320] | 5 (Level 5: growth control rate is above 85%) | 5 (Level 5: growth control rate is above 85%) | 5 (Level 5: growth control rate is above 85%) | 5 (Level 5: growth control rate is above 85%) | 5 (Level 5: growth control rate is above 85%)
COc1c(C(=O)Nc2nnc(C)o2)ccc(C(F)(F)F)c1[S@@+]([O-])C(F)F [Compound 322] | 5 (Level 5: growth control rate is above 85%) | 5 (Level 5: growth control rate is above 85%) | 5 (Level 5: growth control rate is above 85%) | 5 (Level 5: growth control rate is above 85%) | 5 (Level 5: growth control rate is above 85%)
COc1c(C(=O)Nc2nnc(C)o2)ccc(C(F)(F)F)c1[S@+]([O-])CC(F)F [Compound 323] | 5 (Level 5: growth control rate is above 85%) | 5 (Level 5: growth control rate is above 85%) | 5 (Level 5: growth control rate is above 85%) | 5 (Level 5: growth control rate is above 85%) | 5 (Level 5: growth control rate is above 85%)
COc1c(C(=O)Nc2nnc(C)o2)ccc(C(F)(F)F)c1[S@+]([O-])CC(F)(F)F [Compound 324] | 5 (Level 5: growth control rate is above 85%) | 5 (Level 5: growth control rate is above 85%) | 5 (Level 5: growth control rate is above 85%) | 5 (Level 5: growth control rate is above 85%) | 5 (Level 5: growth control rate is above 85%)
COc1c(C(=O)Nc2nnc(C)o2)ccc(C(F)(F)F)c1[S@+]([O-])CCC(F)(F)F [Compound 325] | 5 (Level 5: growth control rate is above 85%) | 5 (Level 5: growth control rate is above 85%) | 5 (Level 5: growth control rate is above 85%) | 5 (Level 5: growth control rate is above 85%) | 5 (Level 5: growth control rate is above 85%)
COc1c(C(=O)Nc2nnc(C)o2)ccc(C(F)(F)F)c1[S@+]([O-])CCCC(F)(F)F [Compound 326] | 5 (Level 5: growth control rate is above 85%) | 5 (Level 5: growth control rate is above 85%) | 5 (Level 5: growth control rate is above 85%) | 5 (Level 5: growth control rate is above 85%) | 5 (Level 5: growth control rate is above 85%)
COc1c(C(=O)Nc2nnc(C)o2)ccc(C(F)(F)F)c1[S@@+]([O-])C(F)(F)C(F)(F)F [Compound 327] | 5 (Level 5: growth control rate is above 85%) | 5 (Level 5: growth control rate is above 85%) | 5 (Level 5: growth control rate is above 85%) | 5 (Level 5: growth control rate is above 85%) | 5 (Level 5: growth control rate is above 85%)
COc1c(C(=O)Nc2nnc(C)o2)ccc(C(F)(F)F)c1[S@@+]([O-])C(F)(F)C(F)(F)C(F)(F)F [Compound 328] | 5 (Level 5: growth control rate is above 85%) | 5 (Level 5: growth control rate is above 85%) | 5 (Level 5: growth control rate is above 85%) | 5 (Level 5: growth control rate is above 85%) | 5 (Level 5: growth control rate is above 85%)
COc1c(C(=O)Nc2nnc(C)o2)ccc(C(F)(F)F)c1[S@+]([O-])CCC(F)(F)C(F)(F)F [Compound 329] | 5 (Level 5: growth control rate is above 85%) | 5 (Level 5: growth control rate is above 85%) | 5 (Level 5: growth control rate is above 85%) | 5 (Level 5: growth control rate is above 85%) | 5 (Level 5: growth control rate is above 85%)
